Values quoted from earlier work, collected in patent publication US20250161397A1, “PLANT BASED FORMULATION FOR FAST PAIN RELIEF AND PREPARATION METHOD” (ARJUNA NATURAL PRIVATE LIMITED, priority 2022, published 2025).

Tests used:
COX-2 [1] = molecular target: T1, COX-2 (Homo sapiens, UniProt P35354); conditions: Siemoneit 2008
T1 sequence (P35354 18-604): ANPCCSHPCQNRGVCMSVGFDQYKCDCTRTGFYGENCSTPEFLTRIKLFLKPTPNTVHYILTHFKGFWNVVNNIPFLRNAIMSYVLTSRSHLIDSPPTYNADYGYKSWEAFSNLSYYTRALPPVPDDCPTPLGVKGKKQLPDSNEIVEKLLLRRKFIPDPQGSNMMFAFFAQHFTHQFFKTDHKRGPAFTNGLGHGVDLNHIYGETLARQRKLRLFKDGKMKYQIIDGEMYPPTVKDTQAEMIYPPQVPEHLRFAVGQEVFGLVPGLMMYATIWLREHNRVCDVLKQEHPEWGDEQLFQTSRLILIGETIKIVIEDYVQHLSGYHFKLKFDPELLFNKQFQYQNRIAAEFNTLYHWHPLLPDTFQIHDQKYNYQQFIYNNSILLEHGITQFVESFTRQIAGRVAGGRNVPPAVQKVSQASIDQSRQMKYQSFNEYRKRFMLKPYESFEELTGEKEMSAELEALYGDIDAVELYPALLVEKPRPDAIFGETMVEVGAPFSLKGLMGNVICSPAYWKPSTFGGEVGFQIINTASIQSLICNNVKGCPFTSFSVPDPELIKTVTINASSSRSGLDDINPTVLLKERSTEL

5-LOX = molecular target: T2, 5-LOX (Homo sapiens, UniProt P09917); conditions: literature
T2 sequence (P09917 1-674): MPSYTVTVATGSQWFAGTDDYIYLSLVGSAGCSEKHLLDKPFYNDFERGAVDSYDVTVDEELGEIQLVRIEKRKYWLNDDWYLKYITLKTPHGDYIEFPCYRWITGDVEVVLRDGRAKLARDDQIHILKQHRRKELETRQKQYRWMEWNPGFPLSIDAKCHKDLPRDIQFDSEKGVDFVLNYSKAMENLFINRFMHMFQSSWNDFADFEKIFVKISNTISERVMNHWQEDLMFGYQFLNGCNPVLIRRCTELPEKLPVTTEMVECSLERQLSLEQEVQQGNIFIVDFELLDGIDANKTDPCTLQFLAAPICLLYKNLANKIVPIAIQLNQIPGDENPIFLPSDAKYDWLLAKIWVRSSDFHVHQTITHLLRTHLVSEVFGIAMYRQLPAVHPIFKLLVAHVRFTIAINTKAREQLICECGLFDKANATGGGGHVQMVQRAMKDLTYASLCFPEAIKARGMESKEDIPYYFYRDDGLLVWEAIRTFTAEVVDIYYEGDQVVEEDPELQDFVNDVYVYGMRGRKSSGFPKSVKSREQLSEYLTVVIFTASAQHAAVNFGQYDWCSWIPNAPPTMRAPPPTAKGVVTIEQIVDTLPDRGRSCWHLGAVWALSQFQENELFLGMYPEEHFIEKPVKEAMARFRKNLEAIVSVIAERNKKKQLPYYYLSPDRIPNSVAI

COX-1 [2] = molecular target: COX-1 (Homo sapiens, UniProt P23219); conditions: Siemoneit 2008
COX-1 (Homo sapiens, UniProt P23219), sequence (P23219 24-599): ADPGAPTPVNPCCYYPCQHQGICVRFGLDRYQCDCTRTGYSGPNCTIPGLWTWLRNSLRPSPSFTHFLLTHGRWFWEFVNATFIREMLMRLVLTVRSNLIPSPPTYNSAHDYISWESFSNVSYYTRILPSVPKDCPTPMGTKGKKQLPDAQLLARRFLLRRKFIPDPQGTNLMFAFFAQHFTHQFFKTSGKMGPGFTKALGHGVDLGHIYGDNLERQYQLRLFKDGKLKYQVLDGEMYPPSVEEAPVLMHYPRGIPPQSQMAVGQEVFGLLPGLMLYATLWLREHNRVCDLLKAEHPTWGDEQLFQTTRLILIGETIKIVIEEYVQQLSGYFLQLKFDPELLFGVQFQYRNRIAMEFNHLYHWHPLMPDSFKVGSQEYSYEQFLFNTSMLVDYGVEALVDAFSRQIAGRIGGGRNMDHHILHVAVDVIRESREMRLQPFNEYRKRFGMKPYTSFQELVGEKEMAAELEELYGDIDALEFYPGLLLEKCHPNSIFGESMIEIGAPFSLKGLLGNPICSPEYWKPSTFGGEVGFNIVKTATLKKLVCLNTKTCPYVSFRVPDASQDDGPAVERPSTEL

12/15 LOX = molecular target: T3, 12/15 LOX (Rattus norvegicus, UniProt Q02759); conditions: in vitro, rat lung cytosolic fraction; Bezáková 2014
T3 construct: from tissue; host or cells: rat lung cytosolic fraction
T3 sequence (Q02759 1-663): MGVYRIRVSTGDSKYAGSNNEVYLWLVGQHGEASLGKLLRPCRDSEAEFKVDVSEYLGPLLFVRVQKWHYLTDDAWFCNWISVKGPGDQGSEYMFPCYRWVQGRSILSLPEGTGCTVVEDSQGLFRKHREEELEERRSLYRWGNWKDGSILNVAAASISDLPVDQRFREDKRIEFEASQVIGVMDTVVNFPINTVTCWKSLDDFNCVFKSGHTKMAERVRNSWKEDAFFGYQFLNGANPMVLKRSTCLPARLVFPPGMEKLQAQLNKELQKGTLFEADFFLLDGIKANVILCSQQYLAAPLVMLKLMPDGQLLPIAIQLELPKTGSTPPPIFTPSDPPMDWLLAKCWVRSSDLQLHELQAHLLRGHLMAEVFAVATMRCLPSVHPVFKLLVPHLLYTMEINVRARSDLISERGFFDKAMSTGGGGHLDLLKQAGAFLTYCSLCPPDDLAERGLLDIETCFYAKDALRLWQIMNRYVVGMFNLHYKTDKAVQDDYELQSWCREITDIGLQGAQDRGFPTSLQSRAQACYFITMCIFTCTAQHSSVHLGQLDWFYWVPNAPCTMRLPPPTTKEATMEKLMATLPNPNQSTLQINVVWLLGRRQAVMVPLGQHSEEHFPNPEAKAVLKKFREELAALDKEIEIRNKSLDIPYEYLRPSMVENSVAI

COX-2 [3] = conditions: HT-29 human colon cancer cells; Goel 2001
COX-1 [4] = conditions: Goel 2001

inhibition of COX-1 (COX-1 [2]) | SMILES | inhibition of COX-2 (COX-2 [1]) | inhibition of 5-LOX (5-LOX) | inhibition of 12/15 LOX (12/15 LOX) | effect on mRNA and protein expression of COX-2 (COX-2 [3]) | effect on mRNA and protein expression of COX-1 (COX-1 [4])
reversible inhibition of COX-1 | CC(=O)O[C@@H]1CC[C@@]2(C)[C@@H](CC[C@]3(C)[C@@H]2C(=O)C=C2[C@@H]4[C@@H](C)[C@H](C)CC[C@]4(C)CC[C@]23C)[C@@]1(C)C(=O)O [AKBA, acetyl-11-keto-β-boswellic acid] | less efficiently inhibited by AKBA as compared to COX-1 | good inhibition of 5-LOX |  |  | 
 | COc1cc(/C=C/C(=O)CC(=O)/C=C/c2ccc(O)c(OC)c2)ccc1O [Curcumin, curcumin] |  | bind to the active site of 5-LOX and inhibit its activity | competitive inhibitor of 12/15 LOX | inhibit the mRNA and protein expression of COX-2 | not COX-1
